Laboratory results reported in patent publication US20210163471A1, “PROGRANULIN MODULATORS AND METHODS OF USING THE SAME” (ARKUDA THERAPEUTICS, priority 2017, published 2021).
Like-named read-outs stand apart in the source and are kept apart here.

Tested on: BV-2 (mouse microglia) cells
Test: progranulin secretion from BV-2 cells, mouse progranulin ELISA of conditioned media
Type: cell-based
Conditions: BV-2 cells, 16 hours incubation, 8-point curves starting at 10 μM
Description: BV-2 cells are split the day before plating into a 96 well plate format at approximately 80%. Cells should be plated the day before and allowed for 1 hour attachment period and for 16 hour incubation. […] Standard ELISA kits to measure PGRN are available from vendors such as Adipogen, R&D, and Biovendor.
Compound potency was determined by measuring progranulin secretion from BV-2 (mouse microglia) cells. BV-2 cells were grown in RPMI with 2 mM L-glutamine supplemented with 10% fetal bovine serum. On the day of the assay, cells were plated in 96-well plates at a density of 30,000 cells/well in RPMI (Roswell Park Memorial Institute media)/L-glutamine supplemented with 2% Fetal clone serum II (plating media) and left to adhere for 1 hour. Following attachment to the plate, media was replaced with treatment (8-point curves in half-log dilutions starting at 10 μM) in plating media and incubated for 16 hours. Secreted progranulin was measured from a 1:10 dilution of the conditioned media using the R&D Systems mouse progranulin ELISA kit (cat #DY2557) and following the manufacturer's instructions.

[1] = Mus musculus, assay run v1, read-out: PRGN v1 (EC50, progranulin secretion)
[2] = assay run v1, read-out: PRGN v1 (EC50, progranulin secretion)
[3] = Mus musculus, assay run v2 (same protocol, different assay), read-out: PRGN v2 (EC50, progranulin secretion)
[4] = assay run v2 (same protocol, different assay), read-out: PRGN v2 (EC50, progranulin secretion)
[5] = Mus musculus, BV-2, 16 h, assay run v1, read-out: PRGN v1 (EC50, progranulin secretion)

SMILES | EC50 [1] [µM] | EC50 [2] [µM] | EC50 [4] [µM] | further results
CS(=O)(=O)c1ccc([C@H]2c3ccccc3CCN2C(=O)O[C@@H]2CN3CCC2CC3)cc1 [Compound 1001, (S)—((S)-quinuclidin-3-yl)-1-(4-(methylsulfonyl)phenyl)-3,4-dihydroisoquinoline-2(1H)-carboxylate] | > 10 | – | – | –
O=C(O[C@@H]1CN2CCC1CC2)N1CCc2ccccc2[C@@H]1c1ccnc(O)c1 [Compound 1002] | – | > 10 | – | –
O=C(O[C@@H]1CN2CCC1CC2)N1CCc2ccccc2[C@H]1c1ccnc(O)c1 [Compound 1003] | – | > 10 | – | –
O=C(O[C@@H]1CN2CCC1CC2)N1CCc2ccccc2[C@@H]1c1ccc(F)cc1 [Compound 1004, (S)—((S)-quinuclidin-3-yl) 1-(4-fluorophenyl)-3,4-dihydroisoquinoline-2(1H)-carboxylate] | 0.36 | – | – | EC50 [3]: 0.43 µM
O=C(O[C@@H]1CN2CCC1CC2)N1CCc2ccccc2[C@H]1c1ccc(F)cc1 [Compound 1005] | > 7 | – | – | –
O=C(O[C@@H]1CN2CCC1CC2)N1CCc2ccccc2[C@@H]1c1ccc(-n2ccnc2)cc1 [Compound 1006] | 5.7 | – | – | –
O=C(O[C@@H]1CN2CCC1CC2)N1CCc2ccccc2[C@H]1c1ccc(-n2ccnc2)cc1 [Compound 1007] | > 10 | – | – | –
COc1cc([C@H]2c3ccccc3CCN2C(=O)O[C@@H]2CN3CCC2CC3)ccn1 [Compound 1008] | – | > 10 | – | –
COc1cc([C@@H]2c3ccccc3CCN2C(=O)O[C@@H]2CN3CCC2CC3)ccn1 [Compound 1009] | – | > 10 | – | –
O=C(O[C@@H]1CN2CCC1CC2)N1CCc2ccccc2[C@@H]1c1ccc(F)c(F)c1 [Compound 1010] | 0.92 | – | – | EC50 [3]: 2.03 µM
O=C(O[C@@H]1CN2CCC1CC2)N1CCc2ccccc2[C@H]1c1ccc(F)c(F)c1 [Compound 1011] | 7.14 | – | – | EC50 [3]: 8.74 µM
O=C(O[C@@H]1CN2CCC1CC2)N1CCc2ccccc2[C@@H]1c1ccc(F)cc1F [Compound 1012] | – | 0.44 | 0.25 | –
O=C(O[C@@H]1CN2CCC1CC2)N1CCc2ccccc2[C@H]1c1ccc(F)cc1F [Compound 1013] | – | > 10 | 1.75 | –
O=C(O[C@@H]1CN2CCC1CC2)N1CCc2ccccc2[C@H]1c1cccc(F)c1F [Compound 1014] | – | > 10 | 4.3 | –
O=C(O[C@@H]1CN2CCC1CC2)N1CCc2ccccc2[C@@H]1c1cccc(F)c1F [Compound 1015] | – | 0.33 | 1.11 | –
O=C1CCCN1c1ccc([C@H]2c3ccccc3CCN2C(=O)O[C@@H]2CN3CCC2CC3)cc1 [Compound 1016] | > 10 | – | – | EC50 [3]: > 10 µM
O=C1CCCN1c1ccc([C@@H]2c3ccccc3CCN2C(=O)O[C@@H]2CN3CCC2CC3)cc1 [Compound 1017] | > 10 | – | – | EC50 [3]: > 10 µM
O=C(O[C@@H]1CN2CCC1CC2)N1CCc2ccccc2[C@@H]1c1ccc(-n2cncn2)cc1 [Compound 1018] | > 10 | – | – | EC50 [3]: > 10 µM
O=C(O[C@@H]1CN2CCC1CC2)N1CCc2ccccc2[C@H]1c1ccc(-n2cncn2)cc1 [Compound 1019] | > 10 | – | – | EC50 [3]: > 10 µM
O=C(O[C@@H]1CN2CCC1CC2)N1CCc2ccccc2[C@@H]1c1cccc(F)c1 [Compound 1020] | – | 1.37 | 3.55 | –

SMILES | EC50 [1] [µM] | EC50 [2] [µM] | EC50 [4] [µM] | further results
O=C(O[C@@H]1CN2CCC1CC2)N1CCc2ccccc2[C@H]1c1cccc(F)c1 [Compound 1021] | – | > 10 | 1.03 | –
O=C(O[C@@H]1CN2CCC1CC2)N1CCc2ccccc2[C@@H]1c1ccc(OC2CC2)cc1 [Compound 1022] | > 10 | – | – | EC50 [3]: > 10 µM
O=C(O[C@@H]1CN2CCC1CC2)N1CCc2ccccc2[C@H]1c1ccc(OC2CC2)cc1 [Compound 1023] | 9.53 | – | – | EC50 [3]: 6.33 µM
COc1ccc([C@H]2c3ccccc3CCN2C(=O)O[C@@H]2CN3CCC2CC3)cc1 [Compound 1024] | – | 2.87 | 2.91 | –
COc1ccc([C@@H]2c3ccccc3CCN2C(=O)O[C@@H]2CN3CCC2CC3)cc1 [Compound 1025] | – | 4.41 | > 10 | –
O=C1CCC([C@H]2c3ccccc3CCN2C(=O)O[C@@H]2CN3CCC2CC3)CN1 (stereo partly drawn) [Compound 1026] | – | > 10 | > 10 | –
O=C1CCC([C@@H]2c3ccccc3CCN2C(=O)O[C@@H]2CN3CCC2CC3)CN1 (stereo partly drawn) [Compound 1027] | – | 9.53 | > 10 | –
COc1ccc([C@H]2c3ccccc3CCN2C(=O)O[C@@H]2CN3CCC2CC3)cn1 [Compound 1028] | – | > 10 | > 10 | –
COc1ccc([C@@H]2c3ccccc3CCN2C(=O)O[C@@H]2CN3CCC2CC3)cn1 [Compound 1029] | – | > 10 | > 10 | –
O=C(O[C@@H]1CN2CCC1CC2)N1CCc2ccccc2[C@@H]1CS(=O)(=O)c1ccccc1 [Compound 1030] | > 10 | – | – | EC50 [3]: > 10 µM
O=C(O[C@@H]1CN2CCC1CC2)N1CCc2ccccc2[C@H]1CS(=O)(=O)c1ccccc1 [Compound 1031] | > 10 | – | – | EC50 [3]: > 10 µM
O=C(O[C@@H]1CN2CCC1CC2)N1CCc2ccccc2[C@@H]1c1ccc2ncsc2c1 [Compound 1032] | – | > 10 | 7.88 | –
O=C(O[C@@H]1CN2CCC1CC2)N1CCc2ccccc2[C@H]1c1ccc2ncsc2c1 [Compound 1033] | – | > 10 | > 10 | –
O=C(O[C@@H]1CN2CCC1CC2)N1CCc2ccccc2[C@@H]1c1ccc2scnc2c1 [Compound 1034] | – | > 10 | 5.77 | –
O=C(O[C@@H]1CN2CCC1CC2)N1CCc2ccccc2[C@H]1c1ccc2scnc2c1 [Compound 1035] | – | > 10 | > 10 | –
O=C(O[C@@H]1CN2CCC1CC2)N1CCc2ccccc2[C@@H]1c1cc2ccccc2s1 [Compound 1036] | – | > 3.16 | > 10 | –
O=C(O[C@@H]1CN2CCC1CC2)N1CCc2ccccc2[C@H]1c1cc2ccccc2s1 [Compound 1037] | – | > 3.16 | > 10 | –
COc1ccc([C@H]2c3ccccc3CCN2C(=O)O[C@@H]2CN3CCC2CC3)cc1F [Compound 1038] | – | – | > 10 | –
COc1ccc([C@@H]2c3ccccc3CCN2C(=O)O[C@@H]2CN3CCC2CC3)cc1F [Compound 1039] | – | – | > 10 | –
O=C(O[C@@H]1CN2CCC1CC2)N1CCc2ccccc2[C@@H]1c1cc(F)cc(F)c1 [Compound 1040] | – | – | > 10 | –

SMILES | EC50 [1] [µM] | EC50 [2] [µM] | EC50 [4] [µM] | further results
O=C(O[C@@H]1CN2CCC1CC2)N1CCc2ccccc2[C@H]1c1cc(F)cc(F)c1 [Compound 1041] | – | – | > 10 | –
O=C(O[C@@H]1CN2CCC1CC2)N1CCc2ccccc2[C@@H]1c1ccc(-n2cnnc2)cc1 [Compound 1042] | – | – | – | EC50 [3]: > 10 µM
O=C(O[C@@H]1CN2CCC1CC2)N1CCc2ccccc2[C@H]1c1ccc(-n2cnnc2)cc1 [Compound 1043] | – | – | – | EC50 [3]: > 10 µM
O=C(O[C@@H]1CN2CCC1CC2)N1Cc2ccccc2[C@@H]1c1ccccc1 [Compound 1044] | – | – | – | EC50 [3]: > 10 µM
O=C(O[C@@H]1CN2CCC1CC2)N1Cc2ccccc2[C@H]1c1ccccc1 [Compound 1045] | – | – | – | EC50 [3]: > 10 µM
O=C(O[C@@H]1CN2CCC1CC2)N1CCc2ccccc2[C@@H]1c1ccc(Cl)cc1 [Compound 1046] | 0.34 | – | – | –
O=C(N[C@@H]1CN2CCC1CC2)N1CCc2ccccc2[C@@H]1c1ccccc1 [Compound 1047] | – | – | – | EC50 [5]: 0.7 µM
O=C(C[C@@H]1CN2CCC1CC2)N1CCc2ccccc2[C@@H]1c1ccccc1 [Compound 1048] | – | – | – | EC50 [5]: 0.88 µM
O=C(C[C@@H]1CN2CCC1CC2)N1CCc2ccccc2[C@@H]1c1ccc(Cl)cc1 [Compound 1049] | – | – | – | EC50 [5]: 0.21 µM
CC1(C)[C@@H](NC(=O)N2CCc3ccccc3[C@@H]2c2ccc(Cl)cc2)C2CCN1CC2 [Compound 1050] | – | – | – | EC50 [5]: 0.36 µM
O=C(C[C@H]1CN2CCC1CC2)N1CCc2ccccc2[C@@H]1c1ccccc1 [Compound 1051] | – | – | – | EC50 [5]: 1.37 µM
CS(=O)(=O)c1ccc([C@H]2c3ccccc3CCN2C(=O)C[C@@H]2CN3CCC2CC3)cc1 [Compound 1052] | – | – | – | EC50 [5]: > 10 µM
O=C(C[C@@H]1CN2CCC1CC2)N1CCc2ccccc2[C@@H]1c1ccc(F)cc1F [Compound 1053] | – | – | – | EC50 [5]: 0.96 µM
O=C(C[C@@H]1CN2CCC1CC2)N1CCc2ccccc2[C@@H]1c1ccc(-n2cncn2)cc1 [Compound 1054] | – | – | – | EC50 [5]: > 10 µM
O=C(C[C@@H]1CN2CCC1CC2)N1CCc2ccccc2[C@H]1c1ccc(-n2cncn2)cc1 [Compound 1055] | – | – | – | EC50 [5]: > 10 µM
COc1ccc([C@H]2c3ccccc3CCN2C(=O)C[C@@H]2CN3CCC2CC3)cc1 [Compound 1056] | – | – | – | EC50 [5]: 3.72 µM
COc1ccc([C@@H]2c3ccccc3CCN2C(=O)C[C@@H]2CN3CCC2CC3)cc1 [Compound 1057] | – | – | – | EC50 [5]: 4.2 µM
O=C(C[C@@H]1CN2CCC1CC2)N1CCc2ccccc2[C@@H]1c1ccc(F)cc1 [Compound 1058] | 0.22 | – | – | –
O=C(C[C@@H]1CN2CCC1CC2)N1CCc2ccccc2[C@H]1c1ccc(F)cc1 [Compound 1059] | > 10 | – | – | –
COc1ccc([C@H]2c3ccccc3CCN2C(=O)C[C@@H]2CN3CCC2CC3)cc1F [Compound 1060] | – | – | – | EC50 [5]: > 10 µM; EC50 (Mus musculus, BV-2, 16 h, assay run v2 (same protocol, different assay), read-out: PRGN v2 (EC50, progranulin secretion)): 2.07 µM
